Measured values from publication PMC11855827, “High-Throughput Screening of Five Compound Libraries for Anthelmintic Activity and Toxicity Leads to the Discovery of Two Flavonoid Compounds” (International Journal of Molecular Sciences, 2025).
Values joined by “and” are separate entries in the source; they are usually repeats but may differ in a detail not shown here. Equal values may be shown once. Read-outs that look alike come from different tables or passages of the source.

Columns and labels:
C. elegans [1] = experiment: C. elegans motility dose-response (DR) assay; set-up: species or system Caenorhabditis elegans
C. elegans [2] = experiment: microbe, parasite or virus in culture; conditions: Caenorhabditis elegans
C. elegans [3] = system: C. elegans
[4] = system: H. contortus susceptible strain; experiment: Egg hatch inhibition (EHI), ovicidal effect; set-up: species or system Haemonchus contortus; conditions: susceptible strain, 100 μM, NE = Not Effective at 100 μM, control thiabendazole 0.1 µg/mL; for inhibition at 100 µM: Haemonchus contortus
[5] = system: H. contortus susceptible strain; experiment: Larval migration inhibition test (LMIT); set-up: species or system Haemonchus contortus; conditions: L3, 100 μM, NE = Not Effective at 100 μM, control ivermectin 8.75 µg/mL; for inhibition at 100 µM: Haemonchus contortus, 24 h
Excerpt: Eggs and third instar larvae (L3) of H. contortus from a field strain and a resistant strain of T. circumcincta were used in the current trials. These parasitic forms were obtained from fresh feces of Merino and Churra sheep experimentally infected at the experimental farm of the Instituto de Ganadería de Montaña (IGM, CSIC, Gruyeros, León, Spain) and purified according to previously described methods. Briefly, eggs were taken from fresh feces, washed, centrifuged and floated with a saturated sodium chloride solution, then concentrated, counted and used in the assays. L3 were obtained by culturing feces at 25 °C for 13 d. L3 larvae were […] in 0.5% sodium hypochlorite solution for 10 min at room temperature and washed to avoid excess salt. After washing, they were concentrated and counted for use.
The viability of H. contortus larvae was assessed by the larval migration inhibition test (LMIT) according to previously described methods. Briefly, 700 µL aliquots containing 500–600 L3 were prepared for each compound. […] After a 24 h incubation at 28 °C, the compound was removed by three washes, leaving a final volume of 1400 µL. After the washes, three 400 µL aliquots were taken from each tube and transferred to a 96-well plate with a MultiScreen mesh filter. The plates were incubated for a further 24 h at 28 °C to allow the motile L3 to pass through the 20 µm mesh for counting. Then, the number of larvae present in each well was counted to determine percentage of larval migration for each compound: % Larval migration=number of larvae migrating in compound wells/number of larvae migrating in negative control×100
For the larvae, ivermectin at 8.75 µg/mL and DMSO 0.5% (v/v) were used as controls and at least 12 replicates were performed. […] EC50 were determined by plotting the percentage of viability of the L1 against the concentration of each compound, using the nonlinear fit analysis provided by the SigmaPlot® 10.1.

[6] = Caenorhabditis elegans, 24 h, read-out: EC50 (μM) at 24 h, C. elegans motility, DR assay, 24 h
[7] = 0 h, read-out: Inhibition (%) 110 μM (0 h), C. elegans L4 motility, 110 μM, 0 h, mean ± SD of four experiments
[8] = 0 h, read-out: Percentage of motility inhibition 0 h, Table S2, C. elegans SS assay, 110 μM, 0 h, averages of 4 data points
[9] = 24 h, read-out: Inhibition (%) 110 μM (24 h), C. elegans L4 motility, 110 μM, 24 h, mean ± SD of four experiments
[10] = 24 h, read-out: Percentage of motility inhibition 24 h, Table S2, C. elegans SS assay, 110 μM, 24 h, averages of 4 data points
[11] = read-out: EC50 (μM) at 24 h, C. elegans motility, DR assay
[12] = C. elegans L4 motility, 110 μM, 0 h, mean ± SD of four experiments
[13] = C. elegans L4 motility, 110 μM, 24 h, mean ± SD of four experiments
[14] = Table S2, C. elegans SS assay, 110 μM, 24 h, averages of 4 data points
[15] = Table S2, C. elegans SS assay, 110 μM, 0 h, averages of 4 data points

Compound	EC50 (C. elegans [1]; [6]) [µM]	inhibition at 110 µM (C. elegans [2]; [7]) [%]	inhibition at 110 µM (C. elegans [2]; [9]) [%]	inhibition at 110 µM (C. elegans [2]; [10]) [%]	Percentage of motility inhibition 24 h (C. elegans [3]; [14])	also measured
Cc1cc(O)cc(C)c1Cl [Chloroxylenol, reference compound]	> 60	100	100	100	–	inhibition at 110 µM (C. elegans [2]; [8]): 100%
CCc1c(Cl)c(O)c(Cl)c(O)c1C(=O)O[C@H]1[C@H](O)[C@H](OC)[C@H](OC/C2=C\C=C\C[C@H](O)/C(C)=C/[C@H](CC)[C@@H](O[C@@H]3OC(C)(C)[C@@H](OC(=O)C(C)C)[C@H](O)[C@@H]3O)/C(C)=C/C(C)=C/C[C@@H]([C@@H](C)O)OC2=O)O[C@@H]1C [Fidaxomicin, reference compound]	> 60	82 ± 7	89 ± 1	88	–	–
CN[C@H]1C[C@@H](N)[C@H](O)[C@@H](O[C@@H]2O[C@H](CO)[C@H](O)[C@@H]3OC4(O[C@H]23)O[C@H]([C@@H](N)CO)[C@H](O)[C@H](O)[C@H]4O)[C@@H]1O (stereo partly shown) [Hygromycin B, reference compound]	–	–	–	–	–	EC50 (C. elegans [1]; [11]): > 60 µM; Inhibition (%) 110 μM (0 h) (C. elegans [3]): 67 ± 28%; Inhibition (%) 110 μM (24 h) (C. elegans [3]): 89 ± 5%
CC(C)=CCc1c(-c2ccc(O)cc2O)oc2c([C@H]3C=C(C)C[C@@H](c4ccc(O)cc4O)[C@@H]3C(=O)c3ccc(O)cc3O)c(O)cc(O)c2c1=O [Kuwanon G]	–	–	–	–	75%	EC50 (C. elegans [1]; [11]): 34.7 ± 1.6 µM; H. contortus EHI (%) [4]: 9.4 ± 1.8%; H. contortus LMIT (%) [5]: 0.0%; Inhibition (%) 110 μM (0 h) (C. elegans [3]; [12]): 0 ± 0%; Inhibition (%) 110 μM (24 h) (C. elegans [3]; [13]): 74 ± 5%
C[C@H]1C(=O)O[C@@H]2CCN3CC=C(COC(=O)[C@](C)(O)[C@]1(C)O)[C@H]23 [Monocrotaline]	–	–	–	12	15%	Percentage of motility inhibition 0 h (C. elegans [3]; [15]): 2%
CCn1cc(C(=O)O)c(=O)c2ccc(C)nc21 [Nalidixic acid]	–	–	–	18	26%	Percentage of motility inhibition 0 h (C. elegans [3]; [15]): 22%; inhibition at 110 µM (C. elegans [2]; [8]): 27%
O=[N+]([O-])c1ccc(O)c2ncccc12 [Nitroxoline, reference compound]	> 60	52 ± 32	88 ± 2	–	–	–
CC1(C)CC[C@]2(C(=O)O)CC[C@]3(C)C(=CC[C@@H]4[C@@]5(C)CC[C@H](O)C(C)(C)[C@@H]5CC[C@]43C)[C@@H]2C1 [Oleanolic Acid]	–	–	–	–	–	Percentage of motility inhibition 24 h (C. elegans [3]; 110 µM): 1% and 0%; inhibition at 110 µM (C. elegans [2]; 0 h, read-out: Percentage of motility inhibition 0 h): 4%
O=C1CCC[C@@H]2[C@H]3CCC[N+]4([O-])CCC[C@@H](CN12)[C@@H]34 (stereo partly shown) [Oxymatrine]	–	–	–	11	–	Percentage of motility inhibition 24 h (C. elegans [3]; 24 h, 110 µM): 6%
CC1(C)CCC[C@](C)([C@H]2CC[C@]3(C)[C@@H]2[C@H](O)C[C@@H]2[C@@]4(C)CC[C@H](O)C(C)(C)[C@@H]4[C@@H](O)C[C@]23C)O1 [Panaxatriol]	–	–	–	15	11%	–
CC(C)(O)[C@H]1O[C@H]2CC[C@@]3(C)[C@@](O)(CC[C@H]4Cc5c([nH]c6ccccc56)[C@@]43C)C2=CC1=O [Paxilline]	–	–	–	–	0% and 8%	inhibition at 110 µM (C. elegans [2]; [8]): 12%
CC1(C)CCC[C@]2(C)[C@@H](C=O)C(C=O)=CC[C@@H]12 [Polygodial]	33.2 ± 6.4	0	93 ± 4	–	–	inhibition at 100 µM [4]: 0%; inhibition at 100 µM [5]: 0%
COC(=O)[C@]1(C)CC[C@]2(C)CC[C@]3(C)C4=CC=C5C(=CC(=O)C(O)=C5C)[C@]4(C)CC[C@@]3(C)[C@@H]2C1 [Pristimerin]	–	–	–	23	24%	Percentage of motility inhibition 0 h (C. elegans [3]; [15]): 15%; inhibition at 110 µM (C. elegans [2]; [8]): 29%
Oc1ccc(/C=C/c2cc(O)cc(O)c2)cc1 [Resveratrol]	27.7 ± 1.5	82 ± 8	7 ± 7	–	–	inhibition at 100 µM [4]: 0%; inhibition at 100 µM [5]: 0%
NC(=O)c1ncn([C@@H]2O[C@H](CO)[C@@H](O)[C@H]2O)n1 [Ribavirin, reference compound]	> 60	91 ± 5	76 ± 11	–	–	–
N=C(N/N=C/c1ccc(Cl)cc1)N/N=C/c1ccc(Cl)cc1 [Robenidine, reference compound]	32.3 ± 2.8	93 ± 5	81 ± 20	80	–	inhibition at 100 µM [4]: 59.7 ± 0.7%; inhibition at 100 µM [5]: 3.1 ± 6.9%
CC(C)=CCC/C(C)=C/CC/C(C)=C/CC/C=C(\C)CC/C=C(\C)CCC=C(C)C [Squalene]	–	–	–	11	–	Percentage of motility inhibition 24 h (C. elegans [3]; 24 h, 110 µM): 19%; inhibition at 110 µM (C. elegans [2]; [8]): 4%
Nc1ccc(S(=O)(=O)Nc2cnc3ccccc3n2)cc1 [Sulfaquinoxaline, reference compound]	> 60	87 ± 1	67 ± 6	–	–	–
CNCC(O)c1ccc(O)cc1 (stereo not shown) [Synephrine]	–	–	–	–	24%	inhibition at 110 µM (C. elegans [2]; [8]): 16%
COc1ccc2cc1Oc1ccc(cc1)C[C@H]1c3cc(c(OC)cc3CCN1C)Oc1c(OC)c(OC)cc3c1[C@H](C2)N(C)CC3 [Tetrandrine]	–	–	–	16	–	Percentage of motility inhibition 24 h (C. elegans [3]; 24 h, 110 µM): 12%
CC(C)[C@]12O[C@H]1[C@@H]1O[C@]13[C@]1(O[C@H]1C[C@H]1C4=C(CC[C@@]13C)C(=O)OC4)[C@@H]2O [Triptolide]	–	–	–	71	–	EC50 (C. elegans [1]; Caenorhabditis elegans, read-out: EC50 (μM) at 24 h, C. elegans motility, DR assay): > 60 µM; inhibition at 110 µM (C. elegans [2]; 0 h, read-out: Inhibition (%) 110 μM (0 h)): 15%; inhibition at 110 µM (C. elegans [2]; 24 h, read-out: Inhibition (%) 110 μM (24 h)): 72 ± 1%
Nc1ncnc2c1ncn2[C@@H]1O[C@H](CO)[C@@H](O)[C@@H]1O [Vidarabine]	–	–	–	0	–	Percentage of motility inhibition 0 h (C. elegans [3]; [15]): 4%
COC(=O)[C@@H]1[C@H]2C[C@H]3c4[nH]c5ccccc5c4CCN3C[C@@H]2CC[C@@H]1O [Yohimbine]	–	–	–	–	–	Percentage of motility inhibition 0 h (C. elegans [3]; 0 h, 110 μM): 8%; inhibition at 110 µM (C. elegans [2]; [8]): 7%
Spiramycin [reference compound]	–	–	–	–	80%	EC50 (C. elegans [1]; [11]): > 60 µM; Inhibition (%) 110 μM (0 h) (C. elegans [3]; [12]): 43 ± 42%; Inhibition (%) 110 μM (24 h) (C. elegans [3]; [13]): 81 ± 9%; Percentage of motility inhibition 0 h (C. elegans [3]; [15]): 42%
